Drawing on ChEMBL document CHEMBL2074507, “Transport of small organic cations in the rat liver. The role of the organic cation transporter OCT1” (Naunyn Schmiedebergs Arch Pharmacol, 1996), this text covers Ki and Km for seven molecules.

Usually Ki stands for the dissociation constant of the complex between target and ligand, obtained from inhibition or displacement. Read a high Ki as a looser hold on the target. One may read the Km as the substrate concentration at which the rate is half of its maximum.

T1: Solute carrier family 22 member 1 (Rattus norvegicus, UniProt Q63089)
T1 sequence (Q63089 whole entry): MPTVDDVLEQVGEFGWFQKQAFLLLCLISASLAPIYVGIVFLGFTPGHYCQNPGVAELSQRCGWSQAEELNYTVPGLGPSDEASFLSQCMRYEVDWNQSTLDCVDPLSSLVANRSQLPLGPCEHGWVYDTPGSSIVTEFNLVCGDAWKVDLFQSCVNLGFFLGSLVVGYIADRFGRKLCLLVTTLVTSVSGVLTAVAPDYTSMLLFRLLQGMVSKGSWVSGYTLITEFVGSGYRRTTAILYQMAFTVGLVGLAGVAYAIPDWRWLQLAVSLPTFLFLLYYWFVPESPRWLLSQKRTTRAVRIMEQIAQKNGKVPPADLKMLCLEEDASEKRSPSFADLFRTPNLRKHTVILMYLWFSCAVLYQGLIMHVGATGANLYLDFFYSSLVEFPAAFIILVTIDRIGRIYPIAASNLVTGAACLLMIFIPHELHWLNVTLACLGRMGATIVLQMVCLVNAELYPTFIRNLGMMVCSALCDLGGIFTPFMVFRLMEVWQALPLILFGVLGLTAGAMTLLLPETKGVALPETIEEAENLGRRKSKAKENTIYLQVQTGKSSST

B1: Solute carrier family 22 member 1 (Rattus norvegicus) (protein)
chain: MPTVDDVLEQVGEFGWFQKQAFLLLCLISASLAPIYVGIVFLGFTPGHYCQNPGVAELSQRCGWSQAEELNYTVPGLGPSDEASFLSQCMRYEVDWNQSTLDCVDPLSSLVANRSQLPLGPCEHGWVYDTPGSSIVTEFNLVCGDAWKVDLFQSCVNLGFFLGSLVVGYIADRFGRKLCLLVTTLVTSVSGVLTAVAPDYTSMLLFRLLQGMVSKGSWVSGYTLITEFVGSGYRRTTAILYQMAFTVGLVGLAGVAYAIPDWRWLQLAVSLPTFLFLLYYWFVPESPRWLLSQKRTTRAVRIMEQIAQKNGKVPPADLKMLCLEEDASEKRSPSFADLFRTPNLRKHTVILMYLWFSCAVLYQGLIMHVGATGANLYLDFFYSSLVEFPAAFIILVTIDRIGRIYPIAASNLVTGAACLLMIFIPHELHWLNVTLACLGRMGATIVLQMVCLVNAELYPTFIRNLGMMVCSALCDLGGIFTPFMVFRLMEVWQALPLILFGVLGLTAGAMTLLLPETKGVALPETIEEAENLGRRKSKAKENTIYLQVQTGKSSST

The first data set deals with T1, Solute carrier family 22 member 1. Kind of data set: TP_TRANSPORTER: inhibition of MPP+ uptake in OCT1-expressing HEK293 cells. It is filed as functional, cell-based.
On to `COc1cc(C(O)CNC(C)C)ccc1O` (configuration not stated) [METIPRENALINE], for which the Ki worked out at 25 µM.

In turn, `Clc1cccc(Cl)c1N=C1NCCN1` [CLONIDINE] displayed an inhibitory constant (Ki) of 1.4 µM. Against the preceding molecule, the Ki is about 18-fold lower.

`CC[n+]1c(CC2C=C(C)N=C(c3ccccc3)N2C)ccc2ccccc21` (configuration not stated) [Cyanine-863] showed an inhibitory constant (Ki) of 0.67 µM.

For `CC(C)N1/C(=C\c2cc[n+](C(C)C)c3ccccc23)C=Cc2ccccc21` [DISPROCYNIUM24], the Ki turned out to be 0.11 µM. This Ki is about 6.1-fold lower than that of the molecule before.

`C[C@]12C[C@H](O)[C@H]3[C@@H](CCC4=CC(=O)CC[C@@]43C)[C@@H]1CC[C@@H]2C(=O)CO` [CORTICOSTERONE] had an inhibitory constant (Ki) of 72 µM.

In turn, `CCN1/C(=C/c2ccc3ccccc3[n+]2CC)C=Cc2ccccc21` showed a Ki of 0.5 µM.

Substrate in the next data set: C[n+]1ccc(-c2ccccc2)cc1
Briefly: TP_TRANSPORTER: uptake in OCT1-expressing HEK293 cells. It is filed as functional, cell-based.
Consider B1, for which the Km stood at 13 µM.
